{"source": "patent US6656916B1", "about": "“Glucocorticoid enhancement of gene expression” (Research Development Foundation, priority 1995, dated 2003)", "key": {"[1]": {"test_system": "A549 cells", "assay": "β-galactosidase (CPRG microtiter) activity in A549 cells transfected with reporter plasmid-cationic lipid", "format": "cell-based, human", "details": "for β-gal expression over untreated cells: 10^−6 M beclomethasone 4 hours; for βgal activity versus medium treated, transfected cells: then beclomethasone 4 hours prior to transfection"}, "[2]": {"test_system": "primary rat lung cells", "assay": "β-gal activity in primary rat lung cells transfected with pCMVβgal-DMRIE/DOPE", "format": "cell-based"}, "[3]": {"test_system": "A549 cells", "assay": "X-gal staining, count of stained transfected A549 cells", "format": "cell-based, human", "details": "BEC 10^−6 M 4 hours, DNA-DMRIE/DOPE, 48 hours, stained cells in 1×1 cm^2 area", "experimental": "All transfections were performed in OPTIMEM (GIBCO-Life Technologies). One μg of pCMVβ gal was combined with 4 μg of DMRIE/DOPE or 3 μg of DOSPA/DOPE in 1 ml of OPTIMEM and incubated for 15 minutes at room temperature. Cell monolayers were washed twice in serum-free medium then overlaid with 1 ml of transfection mixture and incubated for 2.5 hours at 37° C. in a humidified, 5% CO2. DNA-liposome overlay was replaced with DMEM plus 10% FBS and cells were incubated for 48 hours. Cell lysates were harvested and assayed for total protein according to the manufacturer's instructions (BCA assay, Pierce Chemical, Rockfield, Ill.) and β -galactosidase activity was determined using a Chlorophenored-β-D-galactopyranoside colorimetric microtiter assay as described (CPRG) assay (Boerhinger-Mannheim, Germany). […]\nFor stained cells, duplicate cell cultures of A549 cells were treated for 4 hours with beclomethasone dipropionate or medium only, then transfected with pCMVβgal using DMRIE/DOPE. At 48 hours, one set of cultures was lysed and βgal activity determined while the other set was fixed with neutral buffered formalin and stained with β-gal (duplicate wells for each treatment). Stained cells were counted in a 1×1 cm^2 area."}, "[4]": {"test_system": "A549 cells", "assay": "3H-thymidine-labeled pCMVβgal plasmid-lipid uptake", "format": "cell-based, human", "details": "several concentrations, 4 hours pretreatment, uptake at 2 hours", "experimental": "A549 cells were pretreated with medium or beclomethasone at the dose specified for 4 hours, then transfected with ^3H-thymidine-labeled pCMVβgal. Two hours post-transfection, cells were washed, lightly trypsinized and pelleted by centrifugation. Pellets were then lysed, resuspended, and liquid scintillation cocktail added. ^3H-thymidine-labeled pCMVβgal uptake (CPM) per sample was determined. Results represent the average and standard deviation from 4 experiments and each experimental point was performed in duplicate. Fold-change=CPM beclomethasone-pretreated/CPM medium pretreated.\n^3H-thymidine-labeled pCMVβgal plasmid was prepared by adding 1 mCi of ^3H-TdR (^3H-TdR, 74GBq/mmol, Amersham) to a 25 ml overnight culture of pCMVβgal-transformed DH5α strain of Escherichia coli. Labeled plasmid was isolated using Qiagen tip columns (100 μg size, Chatsworth, Calif.) per manufacturer's instructions. Saturable binding of the labeled DNA was determined as follows. Serial dilutions, from 1 μg-0.125 μg of ^3-H-TdR-labeled DNA was added to A549 cells and incubated for either 2, 6 or 24 hours. […] Pellets were lysed in 100 μl of lysis buffer (0.1 M TRIS and 0.5% Triton X-100), liquid scintillation cocktail added (BCS, Amersham) and ^3H-plasmid label quantitated by liquid scintillation. […] Uptake was determined as described above."}, "[5]": {"test_system": "A549 cells", "assay": "β-gal mRNA levels by RNA-specific PCR (RS-PCR)", "format": "cell-based, human", "description": "A549 cells were treated with 10^-6 M beclomethasone or medium for 4 hours. Cells were transfected with 1 μg/ml pCMVβgal plus 4 μg/ml DMRIE/DOPE. At times specified (hours) after transfection, total RNA was harvested, converted to cDNA and specific βgal messages amplified by RS-PCR as described below. RS-PCR samples were resolved on a 1% TAE agarose gel and transferred to nylon filter. Filter was hybridized to a ^32P-labeled βgal probe. Filter was analyzed by betascanner and bands of the appropriate size counted. Fold-change=βgal CPM in beclomethasone treated cells/βgal. CPM in medium-treated cells. […] Briefly, cells were pre-treated with beclomethasone at 10^-6 M and transfected as described above. After the incubation was complete, cells were lysed using acidified guanidinium isothiocyante (Fluka Chemical), containing 0.75 M sodium citrate and 1% sarkosyl. RNA was harvested using the RNAeasy system (Qiagen, Chatsworth, Calif.). Total RNA quantity was determined by A260 and, 0.5 μg of the RNA was run on a gel to determine RNA integrity. Using 0.3 μg of total RNA, cDNAs were prepared using MMLV reverse transcriptase (GIBCO, Life Technologies), substituting primer […] […] One μl of cDNA was spotted to duplicate nitrocellulose filters and counted by LSC. […] Blots were evaluated on a Betagen betascanner and CPM for bands of the correct size were determined."}, "[6]": {"details": "various doses, 4 hours prior to transfection with pCMVβ gal or pSVβ using DMRIE/DOPE"}}, "note": "“Also recorded” adds a separate entry of the source. Where two headings read alike, the source gives them in different places.", "data": [{"compound": "C[C@@H]1C[C@@H]([C@H](O)CC2CC(=O)NC(=O)C2)C(=O)[C@@H](C)C1", "note": "[CHX, cycloheximide]", "values": [{"measurement": "β-gal activity in control cells with protein synthesis inhibitor", "setting": "[1]; CHX 10 μg/ml, 30 minutes + 4 hours", "result": "moderately suppressed the β-gal activity"}]}, {"compound": "CC1(C)O[C@@H]2C[C@H]3[C@@H]4C[C@H](F)C5=CC(=O)C=C[C@]5(C)[C@H]4[C@@H](O)C[C@]3(C)[C@]2(C(=O)CO)O1", "note": "[FLUN, flunisolide]", "values": [{"measurement": "Degree of β-gal enhancement compared with the other glucocorticoids", "setting": "[1]; 10^−6 M, 4 hours prior to transfection", "result": "less of an enhancing effect"}, {"measurement": "Enhancement of β-gal activity by other topical glucocorticoids (FIG. 2B)", "setting": "[1]; 10^−6 M, 4 hours prior to transfection, pCMVβgal-DMRIE/DOPE", "result": "enhanced β-gal activity"}]}, {"compound": "CCC(=O)OCC(=O)[C@@]1(OC(=O)CC)[C@@H](C)C[C@H]2[C@@H]3CCC4=CC(=O)C=C[C@]4(C)[C@@]3(Cl)[C@@H](O)C[C@@]21C", "note": "[beclomethasone, beclomethasone dipropionate]", "values": [{"measurement": "Enhancement of β-gal activity", "setting": "[1]; 5×10^−7 M to 10^−6 M, 4 hours prior to transfection, pCMVβgal-DMRIE/DOPE", "result": "2-4 fold"}, {"measurement": "Minimum beclomethasone exposure required to see enhanced β-gal transfection", "setting": "[1]; 10^−6 M", "result": "3 to 4", "unit": "h"}, {"measurement": "β-gal expression over untreated cells", "setting": "[1]; then IL-1β 4 hours prior to transfection", "result": 2, "unit": "fold"}, {"measurement": "β-gal expression over untreated cells", "setting": "[1]; then lipopolysacchride 4 hours prior to transfection", "result": 2, "unit": "fold"}, {"measurement": "Beclomethasone-mediated enhancement of β-gal activity in presence of CHX", "setting": "[1]; 10^−6 M beclomethasone + CHX 10 μg/ml, 4 hours", "result": "even greater in the presence of CHX"}, {"measurement": "Enhancement of β-gal activity (FIG. 3)", "setting": "[1]; 10^−6 M beclomethasone only, 4 hours", "result": 2.5, "unit": "fold"}, {"measurement": "Pre-treatment time at which enhanced β-gal activity was maximized", "setting": "[1]; 10^−6 M, remained maximal for the 24 hours monitored", "result": "≤ 8", "unit": "h"}, {"measurement": "Enhancement of β-gal activity", "setting": "[1]; 10^−7 M, 4 hours prior to transfection, pCMVβgal-DMRIE/DOPE", "result": "only slight enhancement"}, {"measurement": "FOLD-CHANGE, βGAL ACTIVITY", "setting": "[1]; BEC 10^−6 M 4 hours, DNA-DMRIE/DOPE, 48 hours", "result": 3}, {"measurement": "βgal activity versus medium treated, transfected cells", "setting": "[1]; IL-1β 4 hours first", "result": "augmented βgal activity above what was seen in medium treated, transfected cells"}, {"measurement": "Concentration producing maximal enhanced reporter gene activity", "setting": "[1]; alternate lipid, promoter or reporter", "result": "5×10^−7 to 10^−6 M"}, {"measurement": "βgal activity versus medium treated, transfected cells", "setting": "[1]; lipopolysacchride 4 hours first", "result": "augmented βgal activity above what was seen in medium treated, transfected cells"}, {"measurement": "β-gal expression with alternate cationic lipid", "setting": "[1]; pCMVβgal and DOSPA/DOPE (FIG. 5A)", "result": "also enhanced"}, {"measurement": "β-gal enhancement with SV40 promoter vector", "setting": "[1]; pSVβ-DMRIE/DOPE (FIG. 5B)", "result": "enhancement was observed"}, {"measurement": "Effectiveness of 10^−6 M compared with 10^−7 M", "setting": "[2]; 10^−6 M", "result": "less effective than was 10^−7 M"}, {"measurement": "βgal activity, beclomethasone pretreatment followed by lipopolysacchride stimulation", "setting": "[2]; 4 hours beclomethasone + 4 hours lipopolysacchride", "result": "restored βgal activity to that of the medium pre-treated cells"}, {"measurement": "Concentration of optimum enhancement in βgal activity", "setting": "[2]; 4 hours pretreatment", "result": "10^−7 M"}, {"measurement": "Enhancement of β-gal activity", "setting": "[2]; 4 hours pretreatment, pCMVβgal-DMRIE/DOPE, composite of several rat cell preparations", "result": 2, "unit": "fold"}, {"measurement": "FOLD-CHANGE, X-GAL STAINING", "setting": "[3]", "result": "1.5 ± 0.7"}, {"measurement": "Uptake of radiolabeled plasmid", "setting": "[4]", "result": "does not appear to enhance uptake"}, {"measurement": "Steady-state β-gal mRNA levels versus medium-treated cells", "setting": "[5]; T=3 and T=24 hours, 10^−6 M", "result": "definite increase in steady-state m RNA levels"}, {"measurement": "β-gal mRNA induction", "setting": "[5]; T=2 hours after transfection, 10^−6 M 4 hours pretreatment", "result": 18, "unit": "fold"}]}, {"compound": "CC(C)CCC[C@@H](C)[C@H]1CC[C@H]2[C@@H]3CC=C4C[C@@H](O)CC[C@]4(C)[C@H]3CC[C@]12C", "note": "[cholesterol]", "values": [{"measurement": "Enhancement of β-gal / reporter gene expression by other steroids", "setting": "[1]; [6]", "result": "Enhancement of β-gal was only seen in the beclomethasone treated cells; also recorded: did not enhance reporter gene expression"}]}, {"compound": "C[C@]12CC[C@@H]3c4ccc(O)cc4CC[C@H]3[C@@H]1CC[C@@H]2O", "note": "[estrogen, estradiol]", "values": [{"measurement": "Enhancement of β-gal / reporter gene expression by other steroids", "setting": "[1]", "result": "Enhancement of β-gal was only seen in the beclomethasone treated cells; also recorded: did not enhance reporter gene expression"}]}, {"compound": "CC(=O)[C@H]1CC[C@H]2[C@@H]3CCC4=CC(=O)CC[C@]4(C)[C@H]3CC[C@]12C", "note": "[progesterone]", "values": [{"measurement": "Enhancement of β-gal / reporter gene expression by other steroids", "setting": "[1]; [6]", "result": "Enhancement of β-gal was only seen in the beclomethasone treated cells; also recorded: did not enhance reporter gene expression"}]}, {"compound": "Interleukin-1β [IL-1β]", "values": [{"measurement": "β-gal activity relative to medium treated cells", "setting": "[1]; 100 U/ml IL-1β or 0.5 μg/ml lipopolysacchride for 4 hours before transfection with pCMVβgal-DMRIE/DOPE", "result": "decreased β-gal activity significantly; also recorded: suppressed the degree of β-gal expression"}]}, {"compound": "cyclosporine A", "values": [{"measurement": "Reversal/enhancement of reporter gene expression by another immunosuppressant", "setting": "[1]; cells pre-treated with cyclosporine A, cell type not stated", "result": "this effect was not seen; also recorded: the effect was not seen"}]}]}
